From patent publication US20230212517A1, “METHODS FOR GENERATING HEMATOPOIETIC STEM CELLS” (The Brigham and Women's Hospital, Inc., priority 2018, published 2023)

What was measured:
Dnmt3b = Dnmt3b protein level in nuclear fractions of E11.5 AGM cells (EPIQUIK assay kit); type: cell-based, mouse; details: nuclear fractions of treated E11.5 AGM cells
Procedure: RNA-sequencing analyses were performed to measure gene expression patterns in mouse AGM treated with cyclic strain or pharmacological modulators. Using computational algorithms, hierarchical clustering was performed of differentially expressed genes as well as measured their overrepresented biological processes and pathways. Gene expression clusters of differentially expressed genes were analyzed and their mean expression level across cell populations compared. Next, Venn comparison of up- and down-genes was constructed to analyze candidate(s) important for cyclic strain- or pharmacological modulator(s)-mediated the endothelial-to-HSC transition. Furthermore, Dnmt3b and Dnmt3a protein expressions were analyzed in nuclear fractions of mouse AGM cells using EPIQUIK methyltransferase assay kits. Data are presented as mean±s.d. unless otherwise noted. Statistical analyses were performed by paired or un-paired Student's t-tests. Significance was set at P<0.05.
Nuclear extracts from AGM explants were harvested using an EPIQUIK Nuclear Extraction Kit (Epigentek Group Inc.). Dnmt3b and Dnmt3a protein levels were analyzed using a colorimetric EPIQUIK methyltransferase Assay Kit (Epigentek Group Inc.), according to the manufacturer's instructions. Concentration of Dnmt3b and Dnmt3a is relative to 1 μg of nuclear extract proteins.

E11.5 AGM cells = assay: Hematopoietic colony formation unit (CFU) and FACS assays on E11.5 AGM cells; type: cell-based, mouse; details: substance alone vs. control
Procedure: (§1) Pulsating blood vessels like conditions were stimulated in vitro using FLEXCELL FX-4000 cell stretching bioreactor machine. To analyze roles of pharmacological targets in regulating the endothelial-to-HSC transition, mouse embryo-derived AGM or whole mouse embryo were exposed ex vivo with biomechanical stretching, chemicals, or drugs. Next, hematopoietic colony formation assays were performed by incubating mouse AGM-derived cells in StemCell M3434 media for seven days. Serial transplantation of AGM-derived HSCs in lethally irradiated SJL mice were performed. The stem cell frequency upon biomechanical stretching was analyzed using a limiting dilution assay. To characterize properties of AGM-HSC-derived blood cells in primary transplants, percentage chimerism and reconstitution was measured using FACS, globin transcripts were analyzed using quantitative reverse transcriptase-PCR, myeloperoxidase amount was measured using PICOKINE ELISA kit, TCR-β rearrangement was analyzed using PCR for TCR-β locus, pre-immune IG detection was analyzed using Thermo-Fisher Mouse Ig Isotyping kit, and delayed-type hypersensitivity was analyzed by injecting sheep RBC (Rockland Immunochemicals) in the footpad of pre-sensitized mice.
E11.5 AGM were harvested from C57BL6/J Cd45.2 mouse embryos, and a single cell suspension of a three-embryo equivalent of cells was seeded on each well of a BioFlex six-well culture plate (FlexCell). We cultured cells overnight with the application of cyclic strain (Flexcell® FX4000™ Tension System) and/or treatment with chemical modulators (25-50 μM Yoda1, 1 μM Nanaomycin, 100 μM GdCl3, 1 uM GsMTx4, 5-20 μM 4αPDD, 10 uM GSK205). Next, harvested cells were used to perform transplant, fluorescence-activated cell sorting (FACS) analysis, and colony-forming unit (CFU) assays.
E11.5 mouse embryos were harvested from the uterus of the time-mated pregnant female, into sterile glass vials containing FBS, 1 mM glucose, 1% Penicillin-Streptomycin, and/or the selected chemical modulator (25-50 μM Yoda1, 1 μM Nanaomycin, 5-20 μM 4αPDD, or 10 uM GSK205). We placed glass vials in the ex vivo incubator (BTC Engineering, Cambridge, UK) consisting of a roller apparatus (rotating ˜30 rpm), constant gas supply (21% O2, 5% CO2, balance N2) and constant temperature at 37° C. After 24 hours, AGM were harvested to analyze the formation of hematopoietic cells by FACS and CFU assays.
For CFU assays, cells from AGM explant or ex vivo were plated in METHOCULT GF M3434 media (StemCell Technologies). Seven days after seeding, we analyzed their capacity to make granulocyte, erythroid, macrophage, megakaryocyte (GEMM), granulocyte macrophage (GM), granulocyte (G), macrophage (M), and erythroid (E) colonies.
AGM cells from explants and ex vivo were stained with Sca1-Pacific-Blue (E13-161.7, Biolegend) and Flk1-APC-Cy7 (Avas 12α1, BD). Blood from transplanted mice was stained with the following antibody cocktail: Cd45.2-Pacific-Blue (104, Biolegend), Cd45.1-FITC (A20, Biolegend), Cd3-PE (145-2C11, Biolegend), Cd8-PE (53-6.7, Biolegend), Mac1-APC (M1/70, Biolegend), Gr1-APC (108412, Biolegend), Cd19-APC-CY7 (6D5, Biolegend), B220-APC-CY7 (RA3-6B2, Biolegend).

[1] = system: bone marrow-derived Gr1+Mac1+ sorted (donor) neutrophils; assay: ELISA quantification of myeloperoxidase (MPO) in donor neutrophils of primary transplant; type: in vivo, mouse; details: overnight culture; primary transplant of treated E11.5 AGM
Procedure: as §1, with “mice. […]” for “mice.”

With `Clc1cccc(Cl)c1CSc1nnc(-c2cnccn2)s1` [Yoda1, 2-[5-[[(2,6-Dichlorophenyl)methyl]thio]-1,3,4-thiadiazol-2-yl]-pyrazine] the “Dnmt3b protein expression level” value (Dnmt3b) was “specifically stimulates Dnmt3b protein expression levels”, the “hematopoietic colony formation (endothelial-to-hematopoietic transition)” value (E11.5 AGM cells) was “stimulates the endothelial-to-hematopoietic transition” and the “myeloperoxidase (MPO) level of donor neutrophils” value [1] was “reconstitute to functional myeloid cells displaying sufficient MPO levels”.
